{"source": "patent US20240377404A1", "about": "“BIOLUMINESCENCE-TRIGGERED PHOTOCATALYTIC ACTIVATION” (Promega Corporation, priority 2023, published 2024)", "key": {"[1]": {"tested_on": "HeLa cells expressing the HT178-cpNLuc-179 chimera", "test": "Bioluminescence-triggered uncaging of azido-quenched fluorophores inside cells", "type": "cell-based", "conditions": "2-20 μM fluorophore, 20 μM fluorofurimazine 45 minutes, with/without Ir-9049 or Ru-8974 (3 μM)", "experimental": "Structure of exemplary azido quenched fluorophores and a cartoon depicting bioluminescent-triggered fluorescence turn-on are included in FIG. 9. Briefly, upon absorbance of light, the excited catalyst engages in energy transfer events with the azido-quenched fluorophore to generate a nitrene through elimination of an N2 group, which restore the fluorophore's fluorescence. HeLa cells were transfected with a DNA construct encoding HT178-cpNLuc-179 that was diluted 50-fold into promoterless carrier DNA, plated in flasks at 2×10^5 cell/mL, and incubated 16-18 hours at 37° C., 5% CO2. The next day, cells were collated, replated in 24-well plates at 2×10^5 cell/mL, and incubated overnight at 37° C., 5% CO2. […] Cells were then washed twice, 15 minutes each, in HBSS buffer to remove excess unreacted catalyst or chloroalkane-biotin."}, "[2]": {"tested_on": "Firefly (FFLY) luciferase", "test": "Bioluminescence-triggered uncaging of o-nitrobenzyl-F-luciferin, FFLY luminescence readout", "type": "biochemical", "experimental": "(§1) As depicted in FIG. 18A, bioluminescence-triggered ruthenium-catalyzed excitation of o-nitrobenzyl-caged F-luciferin to liberate F-luciferin, which is then available as a substrate for FFLY luciferase. Synthesis of o-nitrobenzyl-caged F-luciferin is provided in Example 11. […] Residual NanoLuc bioluminescence signal was quenched by treatment with 10 mM competitive extracellular NanoLuc inhibitor before subsequent 5-fold dilution into FFLY detection plate comprising FFLY luciferase, ATP, and Bright-Glo buffer. Bioluminescence was measured before and after dilution into the FFLY detection plate."}, "[3]": {"tested_on": "Firefly (FFLY) luciferase", "test": "Bioluminescence-triggered uncaging of p-azidobenzyl-luciferin, FFLY luminescence readout", "type": "biochemical", "experimental": "as §1, with “FIG. 17A,” for “FIG. 18A,”, “ruthenium-catalyzed reduction” for “ruthenium-catalyzed excitation”, “of p-azidobenzyl-caged luciferin” for “of o-nitrobenzyl-caged F-luciferin”, “liberate luciferin,” for “liberate F-luciferin,”, “as” for “as a”, “for Firefly (FFLY)” for “for FFLY”"}, "NanoLuc (Nluc) enzyme": {"tested_on": "NanoLuc (Nluc) enzyme", "test": "Bioluminescence-triggered release of serotonin from caging Ru complex", "type": "biochemical", "conditions": "200 μM RuBi5, 6 nM NanoLuc, 5 μM fluorofurimazine, 40 minutes", "experimental": "As depicted in FIG. 16A, the amino-signaling molecule serotonin is caged through a coordination reaction with the [Ru^2+(bpy)2]2 core. Upon absorbance of light, the excited ruthenium catalyst induces an oxidation-driven release of serotonin while a water molecule occupies the vacant coordination site.\nHere, 6 nM NanoLuc (Nluc) enzyme and 5 μM fluorofurimazine, in the presence and absences of 200 μM RuBi5 (Abcam), were incubated in a white plate for 40 minutes. Reactions were then transferred to a black plate, and 200 μM RuBi5 (caged) added to the control wells."}, "[4]": {"conditions": "60 nM HT178-cpNLuc-179 tethered/untethered to Ru-8974, 0-10 μM, with/without 20 μM fluorofurimazine, 45 minutes"}, "[5]": {"conditions": "fold increase in FFLY luminescence"}}, "data": [{"molecule": "CC[n+]1c(-c2ccccc2)c2cc(N=[N+]=[N-])ccc2c2ccc(N)cc21.[Br-]", "note": "[EMA, Ethidium Monoazide Bromide, reference compound]", "values": [{"measurement": "fluorescence turn-on upon uncaging", "setting": "[1]", "value": "pronounced catalyst dependent increase in fluorescence"}]}, {"molecule": "CCN(CC)c1ccc2c(C)c(N=[N+]=N)c(=O)oc2c1", "note": "[PBI-8977]", "values": [{"measurement": "fluorescence turn-on upon uncaging", "setting": "[1]", "value": "pronounced catalyst dependent increase in fluorescence"}]}, {"molecule": "O=C(O)[C@H]1CSC(c2nc3cc(F)c(OCc4ccc([N+](=O)[O-])cc4)cc3s2)=N1", "note": "[o-nitrobenzyl-F-luciferin, (S)-2-(5-fluoro-6-((4-nitrobenzyl)oxy)benzo[d]thiazol-2-yl)-4,5-dihydrothiazole-4-carboxylic acid]", "values": [{"measurement": "FFLY luminescence after uncaging", "setting": "[2]; [4]", "value": "Bioluminescence and Ru-dependent increase in FFLY dependent bioluminescence"}, {"measurement": "uncaging efficiency, bioluminescence versus LED", "setting": "[2]; [5]", "value": "higher efficiency for bioluminescence-driven uncaging compared to LED"}]}, {"molecule": "[N-]=[N+]=Nc1ccc(COc2ccc3nc(C4=N[C@@H](C(=O)O)CS4)sc3c2)cc1", "note": "[p-azidobenzyl-luciferin, (S)-2-(6-((4-azidobenzyl)oxy)benzo[d]thiazol-2-yl)-4,5-dihydrothiazole-4-carboxylic acid]", "values": [{"measurement": "FFLY luminescence after uncaging", "setting": "[3]; [4]", "value": "Bioluminescence and Ru-dependent increase in FFLY dependent bioluminescence"}, {"measurement": "uncaging efficiency, bioluminescence versus LED", "setting": "[3]; [5]", "value": "higher efficiency for bioluminescence-driven uncaging compared to LED"}]}, {"molecule": "[Ru(bpy)2(PMe3)(5HT)]^2+ [RuBi5]", "values": [{"measurement": "serotonin emission after bioluminescence exposure", "setting": "NanoLuc (Nluc) enzyme", "value": "bioluminescence-dependent increase in the 340 nm peak emission for serotonin"}]}]}
